Values quoted from earlier work, collected in paper PMC5007443, “TNIK inhibition abrogates colorectal cancer stemness” (Nature Communications, 2016).

Key:
[1] = test system: Wnt signal; design: method as in PMID 23232060; conditions: read-out: IC50, Wnt signal-inhibitory effects; cited from earlier work
[2] = test system: TNIK; design: method as in PMID 23232060; conditions: read-out: IC50, enzyme activity of TNIK; cited from earlier work
[3] = test system: lung cancer cells; design: method as in PMID 25337707; conditions: cited from earlier work

Compound | IC50 [1] | IC50 [2] | EMT of lung cancer cells induced by TGF-β1 [3]
COc1ccc(C#N)cc1-c1ccnc(Nc2ccc(N3CCOCC3)c(OC)c2)c1 [Compound 9, 4-methoxy-3-(2-(3-methoxy-4-morpholinophenylamino)pyridin-4-yl)benzonitrile] | > 2000 nM | 8 nM | 
Cc1ccc(C(=O)Nc2sc(Nc3ccccc3)nc2C(N)=O)cc1 [NCB-0005] |  |  | inhibit
